Key:
[1] = test system: DU145; experiment: DU145 scattering inhibition; settings: Homo sapiens, DU-145, read-out: Potency in cell-based assays DU145 scattering inhibition
[2] = test system: MNNGHOS tumor xenograft; experiment: In vivo solid tumor disease model, MNNGHOS tumor xenograft; settings: MNNGHOS xenograft in mice, dosed orally at 40 mg/kg in PEG 400/0.1 N HCl in saline (40:60)
Text: In Vivo Solid Tumor Disease Model
This test measures the capacity of compounds to inhibit solid tumor growth.
Tumor xenografts are established in the flank of female athymic CDl mice (Charles River Inc.), by subcutaneous injection of 1X10^6 cells/mouse. Once established, tumors are then serially passaged s.c. in nude mice hosts. Tumor fragments from these host animals are used in subsequent compound evaluation experiments. For compound evaluation experiments female nude mice weighing approximately 20 g are implanted s.c. by surgical implantation with tumor fragments of 30 mg from donor tumors. When the tumors are approximately 100 mm^3 in size (˜7-10 days following implantation), the animals are randomized and separated into treatment and control groups. Each group contains 6-8 tumor-bearing mice, each of which is ear-tagged and followed individually throughout the experiment.
Mice are weighed and tumor measurements are taken by calipers three times weekly, starting on Day 1. These tumor measurements are converted to tumor volume by the well-known formula […]. The experiment is terminated when the control tumors reach a size of approximately 1500 mm^3. […] In addition to tumor volumes, body weight of animals is monitored twice weekly for up to 3 weeks. […]

IC50 [1]: 400 nM
SMILES: COc1cc2nccc(Oc3ccc(NC(=O)N4CCN(c5ccccc5)C4=O)cc3F)c2cc1OC [Example 2, N-(4-(6,7-Dimethoxyquinolin-4-yloxy)-3-fluorophenyl)-2-oxo-3-phenylimidazolidine-1-carboxamide]
effect on tumors [2]: full regression of the tumors
tumor growth inhibition [2]: 112%
